Reference: US20050267156A1, “Broadspectrum 2-amino-benzothiazole sulfonamide hiv protease inhibitors” (Tibotec Pharmaceuticals Ltd., priority 2002, published 2005)
Counter-ions that a name gives are not always drawn. Like-named read-outs stand apart in the source and are kept apart here.

Legend:
Assay type in all cases: cell-based
[1] = system: HIV-1 strain LAI; assay: Cellular anti-HIV assay (MT4/MTT), wild type; conditions: MT4 cells, read-out: WT (pEC50) (converted)
Description: The compounds of the present invention were examined for anti-viral activity in a cellular assay. […] The cellular assay was performed according to the following procedure. HIV- or mock-infected MT4 cells were incubated for five days in the presence of various concentrations of the inhibitor. […] Cell viability is measured by measuring the concentration of MTT, a yellow, water soluble tetrazolium dye that is converted to a purple, water insoluble formazan in the mitochondria of living cells only. Upon solubilization of the resulting formazan crystals with isopropanol, the absorbance of the solution is monitored at 540 nm. The values correlate directly to the number of living cells remaining in the culture at the completion of the five-day incubation. The inhibitory activity of the compound was monitored on the virus-infected cells and was expressed as EC50 and EC90. These values represent the amount of the compound required to protect 50% and 90%, respectively, of the cells from the cytopathogenic effect of the virus. […] The selectivity index (SI) (ratio CC50/EC50) is an indication of the selectivity of the anti-HIV activity of the inhibitor. Wherever results are reported as e.g. pEC50 or pCC50 values, the result is expressed as the negative logarithm of the result expressed as EC50 or CC50 respectively.

[2] = system: mutant HIV strain E; assay: microbe, parasite or virus in culture; conditions: for fold resistance Strain E: FR=EC50 (mutant strain)/EC50 (HIV-1 strain LAI); for EC50: Human immunodeficiency virus 1, MT4, read-out: pEC50 Strain E, mutant HIV strain E, MT4 cells (converted)
Description: (§1) HIV- or mock-infected MT4 cells were incubated for five days in the presence of various concentrations of the inhibitor. […] Cell viability is measured by measuring the concentration of MTT, a yellow, water soluble tetrazolium dye that is converted to a purple, water insoluble formazan in the mitochondria of living cells only. Upon solubilization of the resulting formazan crystals with isopropanol, the absorbance of the solution is monitored at 540 nm. The values correlate directly to the number of living cells remaining in the culture at the completion of the five-day incubation. The inhibitory activity of the compound was monitored on the virus-infected cells and was expressed as EC50 and EC90. These values represent the amount of the compound required to protect 50% and 90%, respectively, of the cells from the cytopathogenic effect of the virus. […] The selectivity index (SI) (ratio CC50/EC50) is an indication of the selectivity of the anti-HIV activity of the inhibitor. Wherever results are reported as e.g. pEC50 or pCC50 values, the result is expressed as the negative logarithm of the result expressed as EC50 or CC50 respectively.

[3] = system: mutant HIV strain A; assay: microbe, parasite or virus in culture; conditions: for fold resistance Strain A: FR=EC50 (mutant strain)/EC50 (HIV-1 strain LAI); for EC50: Human immunodeficiency virus 1, MT4, read-out: pEC50 Strain A, mutant HIV strain A, MT4 cells (converted)
Description: as §1

[4] = system: mutant HIV strain F; assay: microbe, parasite or virus in culture; conditions: for fold resistance Strain F: FR=EC50 (mutant strain)/EC50 (HIV-1 strain LAI); for EC50: Human immunodeficiency virus 1, MT4, read-out: pEC50 Strain F, mutant HIV strain F, MT4 cells (converted)
Description: as §1

[5] = system: mutant HIV strain B; assay: microbe, parasite or virus in culture; conditions: for fold resistance Strain B: FR=EC50 (mutant strain)/EC50 (HIV-1 strain LAI); for EC50: Human immunodeficiency virus 1, MT4, read-out: pEC50 Strain B, mutant HIV strain B, MT4 cells (converted)
Description: as §1

[6] = system: mutant HIV strain C; assay: microbe, parasite or virus in culture; conditions: for fold resistance Strain C: FR=EC50 (mutant strain)/EC50 (HIV-1 strain LAI); for EC50: Human immunodeficiency virus 1, MT4, read-out: pEC50 Strain C, mutant HIV strain C, MT4 cells (converted)
Description: as §1

[7] = system: mutant HIV strain D; assay: microbe, parasite or virus in culture; conditions: for fold resistance Strain D: FR=EC50 (mutant strain)/EC50 (HIV-1 strain LAI); for EC50: Human immunodeficiency virus 1, MT4, read-out: pEC50 Strain D, mutant HIV strain D, MT4 cells (converted)
Description: as §1

[8] = Toxicity on mock-infected cells (MTT); conditions: human
Description: HIV- or mock-infected MT4 cells were incubated for five days in the presence of various concentrations of the inhibitor. At the end of the incubation period, the replicating virus in the control cultures has killed all HIV-infected cells in the absence of any inhibitor. Cell viability is measured by measuring the concentration of MTT, a yellow, water soluble tetrazolium dye that is converted to a purple, water insoluble formazan in the mitochondria of living cells only. Upon solubilization of the resulting formazan crystals with isopropanol, the absorbance of the solution is monitored at 540 nm. The values correlate directly to the number of living cells remaining in the culture at the completion of the five-day incubation. The inhibitory activity of the compound was monitored on the virus-infected cells and was expressed as EC50 and EC90. These values represent the amount of the compound required to protect 50% and 90%, respectively, of the cells from the cytopathogenic effect of the virus. […] The selectivity index (SI) (ratio CC50/EC50) is an indication of the selectivity of the anti-HIV activity of the inhibitor. Wherever results are reported as e.g. pEC50 or pCC50 values, the result is expressed as the negative logarithm of the result expressed as EC50 or CC50 respectively.

[9] = Human immunodeficiency virus 1, wild type HIV-1 strain LAI
[10] = Human immunodeficiency virus 1, MT4, wild type HIV-1 strain LAI

SMILES	EC50 [1, 9] [nM]	fold resistance Strain E [2]	EC50 [2] [nM]	fold resistance Strain A [3]	EC50 [3] [nM]	fold resistance Strain F [4]	EC50 [4] [nM]	fold resistance Strain B [5]	EC50 [5] [nM]	fold resistance Strain C [6]	EC50 [6] [nM]	fold resistance Strain D [7]	EC50 [7] [nM]	CC50 at 5 days [8] [nM]	other results
CNc1nc2ccc(S(=O)(=O)N(CC(C)C)C[C@@H](O)[C@H](Cc3ccccc3)NC(=O)COc3c(C)cc(N)cc3C)cc2s1 [Compound 26, 2-(4-amino-2,6-dimethyl-phenoxy)-N-{(1S,2R)-1-benzyl-2-hydroxy-3-[isobutyl-(2-methylamino-benzothiazole-6-sulfonyl)-amino]-propyl}-acetamide]	2.69	2.3	6.17	11.2	30.2	20.9	56.2	1.5	3.98	2.7	7.24	3.1	8.32	–	–
CNc1nc2ccc(S(=O)(=O)N(CC(C)C)C[C@@H](O)[C@H](Cc3ccccc3)NC(=O)OCc3cncs3)cc2s1.O=C(O)C(F)(F)F [Compound 19, {(1S,2R)-1-benzyl-2-hydroxy-3-[isobutyl-(2-methylamino-benzothiazole-6-sulfonyl)-amino]-propyl}-carbamic acid thiazol-5-ylmethyl ester trifluoroacetate]	–	–	–	–	–	–	–	–	–	–	–	–	–	–	EC50 [1, 10]: 3.09 nM; pEC50 Strain E ([2]; mutant HIV strain E, MT4 cells): 7.90; pEC50 Strain A ([3]; mutant HIV strain A, MT4 cells): 7.36; pEC50 Strain F ([4]; mutant HIV strain F, MT4 cells): 6.80; pEC50 Strain B ([5]; mutant HIV strain B, MT4 cells): 7.80; pEC50 Strain C ([6]; mutant HIV strain C, MT4 cells): 7.88; pEC50 Strain D ([7]; mutant HIV strain D, MT4 cells): 7.43
CC(C)CN(C[C@@H](O)[C@H](Cc1ccccc1)NC(=O)OC1CCOC1)S(=O)(=O)c1ccc2nc(N)sc2c1 (stereo partly drawn) [Compound 12, {(1S,2R)-3-[(2-amino-benzothiazole-6-sulfonyl)-isobutyl-amino]-1-benzyl-2-hydroxypropyl}-carbamic acid tetrahydro-furan-3-yl ester]	4.27	1.8	7.76	53.7	229	–	–	1.8	7.59	44.7	191	6.2	26.3	> 100000	–
CC(C)CN(C[C@@H](O)[C@H](Cc1ccccc1)NC(=O)OCc1cccnc1)S(=O)(=O)c1ccc2nc(N)sc2c1 [Compound 9, {(1S,2R)-3-[(2-amino-benzothiazole-6-sulfonyl)-isobutyl-amino]-1-benzyl-2-hydroxypropyl}-carbamic acid pyridin-3-ylmethyl ester]	4.9	4.9	24	53.7	263	–	–	1.1	5.62	1000.0	4900	8.5	41.7	51300	–
Cc1c(F)cccc1C(=O)N[C@@H](Cc1ccccc1)[C@H](O)CN(CC(C)C)S(=O)(=O)c1ccc2nc(N)sc2c1 [Compound 16, N-{(1S,2R)-3-[(2-amino-benzothiazole-6-sulfonyl)-isobutyl-amino]-1-benzyl-2-hydroxypropyl}-3-fluoro-2-methyl-benzamide]	1410	–	> 100000	–	> 100000	–	> 100000	–	> 100000	–	> 100000	–	> 100000	11200	–
CC(C)CN(C[C@@H](O)[C@H](Cc1ccccc1)NC(=O)OCc1cncs1)S(=O)(=O)c1ccc2nc(N)sc2c1 [Compound 3, {(1S,2R)-3-[(2-amino-benzothiazole-6-sulfonyl)-isobutyl-amino]-1-benzyl-2-hydroxypropyl}-carbamic acid thiazol-5-ylmethyl ester]	4.57	4.8	21.9	6.6	30.2	11.7	53.7	1.9	8.91	3.4	15.5	7.9	36.3	74100	–
Cc1cccc(C)c1OCC(=O)N[C@@H](Cc1ccccc1)[C@H](O)CN(CC(C)C)S(=O)(=O)c1ccc2nc(N)sc2c1 [Compound 8, N-{(1S,2R)-3-[(2-amino-benzothiazole-6-sulfonyl)-isobutyl-amino]-1-benzyl-2-hydroxypropyl}-2-(2,6-dimethyl-phenoxy)-acetamide]	6.61	4.2	27.5	4.8	31.6	21.4	141	2.0	13.5	3.9	25.7	5.1	33.9	> 10000	–
CNc1nc2ccc(S(=O)(=O)N(CC(C)C)C[C@@H](O)[C@H](Cc3ccccc3)NC(=O)c3cccc(O)c3C)cc2s1 [Compound 23, N-{(1S,2R)-1-benzyl-2-hydroxy-3-[isobutyl-(2-methylamino-benzothiazole-6-sulfonyl)-amino]-propyl}-3-hydroxy-2-methyl-benzamide trifluoroacetate]	–	–	7.24	–	288	–	–	–	9.55	–	8.71	–	21.4	69200	EC50 [1, 10]: 4.57 nM
CC(C)CN(C[C@@H](O)[C@H](Cc1ccccc1)NC(=O)OC1COC2OCCC12)S(=O)(=O)c1ccc2nc(N(C)C)sc2c1 (stereo partly drawn) [Compound 6, {(1S,2R)-1-benzyl-3-[(2-dimethylamino-benzothiazole-6-sulfonyl)-isobutyl-amino]-2-hydroxy-propyl}-carbamic acid hexahydro-furo[2,3-b]furan-3-yl ester]	3.98	–	–	50.1	200	177.8	708	32.4	129	8.5	33.9	27.5	110	> 100000	–
Cc1ccccc1C(=O)N[C@@H](Cc1ccccc1)[C@H](O)CN(CC(C)C)S(=O)(=O)c1ccc2nc(N)sc2c1 [Compound 14, N-{(1S,2R)-3-[(2-amino-benzothiazole-6-sulfonyl)-isobutyl-amino]-1-benzyl-2-hydroxypropyl}-2-methyl-benzamide]	3.8	7.9	30.2	234.4	891	–	–	7.1	26.9	46.8	178	10.5	39.8	46800	–
